Test results reported in patent US20160050929A1, “METHODS OF CONTROLLING NEONICOTINOID RESISTANT PESTS” (SYNGENTA PARTICIPATIONS AG, priority 2013, published 2016).

Test system: Orius laevigatus
Test: Safety to beneficial species: test on Orius laevigatus
Format: in vivo
Conditions: Orius laevigatus adults; for Corrected Mortality (%) 2 DAI: 2 days after infestation; for Corrected Mortality (%) 4 DAI: 4 days after infestation
Protocol: Phaseolus vulgaris var. Fulvio (french bean) plants were reduced to one leaf. With the leaves held in a horizontal position, a track sprayer was used to treat the plants at a rate corresponding to […]. Once dry, leaf discs were collected from the plants and placed treated side up in petri dishes containing 1% water agar.
A paper triangle was added for shelter, and a suitable amount of Ephestia eggs were added as a food supply. Five (5) Orius laevigatus (predatory bug, Syngenta Bioline) adults were added and the dishes closed with a cotton filter and perforated plastic lid. The dishes were incubated in a climate chamber at 25° C., 75% relative humidity, 16:8 h light/dark regime.
Six replicates were provided for each treatment and concentration level. The number of living and dead Orius laevigatus were counted two and four days after infestation (DAI). At the day two evaluation the food supply was replenished.

Structure (SMILES): C#CCN1[C@@H]2CC[C@H]1C[C@](C#N)(c1cncc(C#C)c1)C2 [Compound 1.070]
- Corrected Mortality (%) 2 DAI (rate 50 ppm): 0%
- Corrected Mortality (%) 4 DAI (rate 50 ppm): 0%
- Corrected Mortality (%) 2 DAI (rate 100 ppm): 0%
- Corrected Mortality (%) 4 DAI (rate 100 ppm): 0%
- Corrected Mortality (%) 2 DAI (rate 200 ppm): 0%
- Corrected Mortality (%) 4 DAI (rate 200 ppm): 0%

Structure (SMILES): O=[N+]([O-])NC1=NCCN1Cc1ccc(Cl)nc1 [Imidacloprid, imidacloprid]
- Corrected Mortality (%) 2 DAI (rate 50 ppm): 11%
- Corrected Mortality (%) 4 DAI (rate 50 ppm): 30%
- Corrected Mortality (%) 2 DAI (rate 100 ppm): 43%
- Corrected Mortality (%) 4 DAI (rate 100 ppm): 65%
- Corrected Mortality (%) 2 DAI (rate 200 ppm): 75%
- Corrected Mortality (%) 4 DAI (rate 200 ppm): 100%
